Measurements from patent US9808477B2 (Macau University of Science and Technology, priority 2015, dated 2017).

Assays:
A2780 cells = assay: Intracellular accumulation of doxorubicin and Flutax-2; assay type: cell-based, human; conditions: parental A2780, nobiletin 4.5 μM
Protocol: A2780 or A2780/T cells (5×10^6) were cultured on the cover glass (ISO LAB 20×20 mm). […] After treatment, cells were fixed in 4 wt % formaldehyde (Sigma-Aldrich). Nuclear DNA was stained with 1 μg/mL blue-fluorescent DAPI (1 mg/mL in H2O stock solution; Invitrogen D1306). One drop of fluorescent preservation solution (fluorsave reagent, CALBIOCHEM) was added before observation. Imaging was carried out for comparing the intracellular accumulation of DOX and flutax-2 with a Fluorescence Microscopy (Leica DM2500, Leica, Germany).
Cells were detached, re-suspended in 500 μl of PBS after washed twice with cold PBS, and analyzed by flow cytometry (BD FACS Aria, BD Biosciences, San Jose, Calif.). Excitation and emission wavelengths (nm) used for DOX and flutax-2 were as follows: 480 to 585; and 496 to 524.

A2780/T cells [1] = assay: Apoptosis analysis by Annexin-V/PI double staining; assay type: cell-based, human
Protocol: After treatment, 1×10^6 cells were collected, washed and suspended in 100 μl of binding buffer (10 mM N-2-hydroxyethylpiperazine-N,-2-ethanesulfonic acid/NaOH, 140 mM NaCl, 2.5 mM CaCl2, pH 7.4). Apoptotic cells were identified by double supravital staining with 5 μl recombinant FITC (fluorescein isothiocyanate)-conjugated Annexin-V and 5 μl PI (50 μg/ml). The cells were stained for […] at room temperature in the dark, and analyzed by fluorescence-activated cell sorting cater-plus flow cytometry. Data acquisition and analysis were performed in BD FACS Aria with FlowJo software.

[2] = test system: ABCB1 transfected cell line LLC-GA5-COL300; conditions: nobiletin 20 μM; cited from earlier work
A2780/T cells [3] = assay: Colony formation assay; assay type: cell-based, human; conditions: 12 days
Text: The A2780/T cells were trypsinized and plated in fresh culture medium at a density of 600 cells/9.6 cm^2 plate. Subsequently, the cells were fixed with 70% ethanol and stained with crystal violet (0.5% in ethanol). The plates were rinsed with phosphate buffered saline (PBS), and the colony numbers were counted using the software of Quantity one-Colony counting.

[4] = 9 μM nobiletin alone or 0.94 μM PTX alone

## COc1ccc(-c2cc(=O)c3c(OC)c(OC)c(OC)c(OC)c3o2)cc1OC [nobiletin]
A2780 cells
  DOX and Flutax-2 levels: no effect
A2780/T cells [1]; [4]
  apoptosis induction, single treatment: did not show apoptosis induction
A2780/T cells [1]; 0.5, 1.5, 4.5 and 9 μM nobiletin + 0.94 μM PTX, 48 h
  apoptosis induced by 0.94 μM PTX (annexin V-FITC positive): significantly increase apoptosis
[2]
  increase of uptake of [3H] vinblastine: 1.8 fold
A2780/T cells [3]; [4]
  inhibition of colony formation, single agent: no inhibition
A2780/T cells [3]; different concentrations of nobiletin with 0.94 μM PTX
  inhibition of colony formation, combination: Complete inhibition
